Data published in ChEMBL document CHEMBL3880442, “NHE3-binding compounds and methods for inhibiting phosphate transport” (2014).
Active and inactive are the calls of the source. The rule behind the calls is not given here.

Assays:
[1] = test system: Rattus norvegicus; experiment: Effect on sodium level in urine in Sprague-Dawley rat at 3 mg/kg administered via oral gavage measured after 16 hrs by gravimetric analysis relative to vehicle-treated control; assay type: functional
[2] = test system: Rattus norvegicus; experiment: Effect on phosphate level in urine in Sprague-Dawley rat at 3 mg/kg administered via oral gavage measured after 16 hrs by gravimetric analysis relative to vehicle-treated control; assay type: functional
[3] = test system: Rattus norvegicus; experiment: Effect on sodium level in urine in Sprague-Dawley rat at 1 mg/kg administered via oral gavage measured after 16 hrs by gravimetric analysis relative to vehicle-treated control; assay type: functional
[4] = test system: Rattus norvegicus; experiment: Inhibition of NHE3-mediated intestinal phosphate uptake in rat at 10 mg/kg, po administered with 33-labeled Pi; assay type: functional, organism-based
[5] = test system: Rattus norvegicus; experiment: Inhibition of NHE3-mediated intestinal phosphate uptake in rat at 10 mg/kg, po administered with 33-labeled Pi in presence of glucose and calcium; assay type: functional, organism-based
[6] = test system: Rattus norvegicus; experiment: Inhibition of NHE3-mediated intestinal phosphate uptake in rat at 10 mg/kg, po administered with 33-labeled Pi in presence of calcium; assay type: functional, organism-based
[7] = test system: Rattus norvegicus; experiment: Reduction in urinary sodium level in rat at 10 mg/kg, po administered with 33-labeled Pi; assay type: functional, organism-based
[8] = test system: Rattus norvegicus; experiment: Effect on fecal form in rat at 10 mg/kg, po administered with 33-labeled Pi; assay type: functional, organism-based
[9] = test system: Rattus norvegicus; experiment: Effect on sodium level in urine in Sprague-Dawley rat at 10 mg/kg administered via oral gavage measured after 16 hrs by gravimetric analysis relative to vehicle-treated control; assay type: functional
[10] = test system: Rattus norvegicus; experiment: Effect on phosphate level in urine in Sprague-Dawley rat at 10 mg/kg administered via oral gavage measured after 16 hrs by gravimetric analysis relative to vehicle-treated control; assay type: functional

SMILES | Activity [9] | Activity [10] | further results
CN1Cc2c(Cl)cc(Cl)cc2[C@H](c2cccc(S(=O)(=O)NCCOCCOCCN(C)C(=O)NCCCN(CCCNC(=O)N(C)CCOCCOCCNS(=O)(=O)c3cccc([C@@H]4CN(C)Cc5c(Cl)cc(Cl)cc54)c3)CCCNC(=O)N(C)CCOCCOCCNS(=O)(=O)c3cccc([C@@H]4CN(C)Cc5c(Cl)cc(Cl)cc54)c3)c2)C1 | – | – | Activity [1]: 38%; Activity [2]: 68%
CN1Cc2c(Cl)cc(Cl)cc2[C@H](c2cccc(S(=O)(=O)NCCOCCOCCNC(=O)Nc3ccc(NC(=O)NCCOCCOCCNS(=O)(=O)c4cccc([C@@H]5CN(C)Cc6c(Cl)cc(Cl)cc65)c4)cc3)c2)C1.Cl.Cl | – | – | Activity [3]: 22%; inhibition [4]: Active; inhibition [5]: Active; inhibition [6]: Active; Activity [7]: Active; Activity [8]: Active
CN1Cc2c(Cl)cc(Cl)cc2[C@H](c2ccc(S(=O)(=O)NCCOCCOCCOCCNC(=O)COCC(=O)NCCOCCOCCOc3cccc(-c4nc(NC(=N)N)nc5ccc(Cl)cc45)c3)cc2)C1 | 87% | 150% | –
O=C(NCCCCNC(=O)NCCOCCOCCNS(=O)(=O)c1ccc(O[C@H]2c3ccccc3C[C@@H]2N2CCCCC2)cc1)NCCOCCOCCNS(=O)(=O)c1ccc(O[C@H]2c3ccccc3C[C@@H]2N2CCCCC2)cc1 | 35 - 73% | 30 - 51% | –
CN1Cc2c(Cl)cc(Cl)cc2[C@@H](c2cccc(S(=O)(=O)NCCOCCOCCNC(=O)NCCCCNC(=O)NCCOCCOCCNS(=O)(=O)c3cccc([C@H]4CN(C)Cc5c(Cl)cc(Cl)cc54)c3)c2)C1 | – | – | inhibition [4]: Active; inhibition [5]: Active; inhibition [6]: Active
O=C(O)CN(CCN(CC(=O)O)CC(=O)NCCOCCOCCNS(=O)(=O)c1ccc(O[C@H]2c3ccccc3C[C@@H]2N2CCCCC2)cc1)CC(=O)NCCOCCOCCNS(=O)(=O)c1ccc(O[C@H]2c3ccccc3C[C@@H]2N2CCCCC2)cc1 | 68 - 93% | 55 - 85% | –
CN1Cc2c(Cl)cc(Cl)cc2[C@H](c2cccc(S(=O)(=O)NCCOCCOCCNC(=O)CCC(CCC(=O)NCCOCCOCCNS(=O)(=O)c3cccc([C@@H]4CN(C)Cc5c(Cl)cc(Cl)cc54)c3)(CCC(=O)NCCOCCOCCNS(=O)(=O)c3cccc([C@@H]4CN(C)Cc5c(Cl)cc(Cl)cc54)c3)NC(=O)N3CCN(CCOCCO)CC3)c2)C1 | – | – | Activity [1]: 31%; Activity [2]: 34%
CN(CC(=O)NCCOCCOCCOCCN1CCN(c2ccc(-c3nc(NC(=N)N)nc4ccc(Cl)cc34)cc2)CC1)CC(=O)NCCOCCOCCOCCN1CCN(c2ccc(-c3nc(NC(=N)N)nc4ccc(Cl)cc34)cc2)CC1 | 66% | 101% | –
CN1Cc2c(Cl)cc(Cl)cc2[C@H](c2cccc(S(=O)(=O)NCCOCCOCCNC(=O)CCC(CCC(=O)NCCOCCOCCNS(=O)(=O)c3cccc([C@@H]4CN(C)Cc5c(Cl)cc(Cl)cc54)c3)(CCC(=O)NCCOCCOCCNS(=O)(=O)c3cccc([C@@H]4CN(C)Cc5c(Cl)cc(Cl)cc54)c3)NC(=O)N[C@@H](CC(=O)O)C(=O)O)c2)C1 | – | – | Activity [1]: 41%; Activity [2]: 51%
O=C(NCCCCNC(=O)NCCOCCOCCOCCNS(=O)(=O)c1ccc(O[C@H]2c3ccccc3C[C@@H]2N2CCCCC2)cc1)NCCOCCOCCOCCNS(=O)(=O)c1ccc(O[C@H]2c3ccccc3C[C@@H]2N2CCCCC2)cc1 | 33 - 79% | 43 - 52% | –
CN1Cc2c(Cl)cc(Cl)cc2[C@@H](c2cccc(S(=O)(=O)NCCOCCOCCNC(=O)NCCCC(N)(CCCNC(=O)NCCOCCOCCNS(=O)(=O)c3cccc([C@@H]4CN(C)Cc5c(Cl)cc(Cl)cc54)c3)CCCNC(=O)NCCOCCOCCNS(=O)(=O)c3cccc([C@@H]4CN(C)Cc5c(Cl)cc(Cl)cc54)c3)c2)C1 | – | – | Activity [1]: 56%; Activity [2]: 50%
N=C(N)Nc1nc(-c2ccc(N3CCN(CCOCCOCCOCCNC(=O)CCOCCOCCOCCOCCOCCC(=O)NCCOCCOCCOCCN4CCN(c5ccc(-c6nc(NC(=N)N)nc7ccc(Cl)cc67)cc5)CC4)CC3)cc2)c2cc(Cl)ccc2n1 | 100% | – | –
CN1Cc2c(Cl)cc(Cl)cc2[C@@H](c2cccc(S(=O)(=O)NCCOCCOCCNC(=O)NCCCCNC(=O)NCCOCCOCCNS(=O)(=O)c3cccc([C@@H]4CN(C)Cc5c(Cl)cc(Cl)cc54)c3)c2)C1.Cl.Cl | 90% | – | –
CN(C)[C@H]1Cc2c(Cl)cc(Cl)cc2[C@@H]1Oc1ccc(S(=O)(=O)N(C)CCOCCOCCNC(=O)NCCCCNC(=O)NCCOCCOCCN(C)S(=O)(=O)c2ccc(O[C@H]3c4cc(Cl)cc(Cl)c4C[C@@H]3N(C)C)cc2)cc1 | 49% | 49% | –
CN1Cc2c(Cl)cc(Cl)cc2[C@H](c2cccc(S(=O)(=O)NCCOCCOCCOCCNC(=O)CN(CCOCCOCCN(CC(=O)NCCOCCOCCOCCNS(=O)(=O)c3cccc([C@@H]4CN(C)Cc5c(Cl)cc(Cl)cc54)c3)CC(=O)NCCOCCOCCOCCNS(=O)(=O)c3cccc([C@@H]4CN(C)Cc5c(Cl)cc(Cl)cc54)c3)CC(=O)NCCOCCOCCOCCNS(=O)(=O)c3cccc([C@@H]4CN(C)Cc5c(Cl)cc(Cl)cc54)c3)c2)C1 | 51% | 95% | –
CN1Cc2c(Cl)cc(Cl)cc2[C@H](c2cccc(S(=O)(=O)NCCOCCOCCNC(=O)NCCN(CCNC(=O)NCCOCCOCCNS(=O)(=O)c3cccc([C@@H]4CN(C)Cc5c(Cl)cc(Cl)cc54)c3)C(=O)CCOCCOCCOCCOCCOCCC(=O)N(CCNC(=O)NCCOCCOCCNS(=O)(=O)c3cccc([C@@H]4CN(C)Cc5c(Cl)cc(Cl)cc54)c3)CCNC(=O)NCCOCCOCCNS(=O)(=O)c3cccc([C@@H]4CN(C)Cc5c(Cl)cc(Cl)cc54)c3)c2)C1 | 47% | 69% | –
